pIC50: −log10 of the molar value. Activity calls are given as the source filed them. The rule behind the calls is not given here.
Columns and labels:
PANC-1 = assay: Cytotoxicity against human PANC-1 cells assessed as inhibition of cell growth measured after 8 days by XTT cell viability assay; assay type: functional, cell-based; conditions: PANC-1, 192 h
NCI-H1299 = assay: Cytotoxicity against human NCI-H1299 cells assessed as inhibition of cell growth measured after 8 days by XTT cell viability assay; assay type: functional, cell-based; conditions: NCI-H1299, 192 h
MDA-MB-231 = assay: Cytotoxicity against human MDA-MB-231 cells assessed as inhibition of cell growth measured after 8 days by XTT cell viability assay; assay type: functional, cell-based; conditions: MDA-MB-231, 192 h
PC-3 [1] = assay: Cytotoxicity against human PC-3 cells assessed as inhibition of cell growth measured after 8 days by XTT cell viability assay; assay type: functional, cell-based; conditions: PC-3, 192 h
[2] = Cytotoxicity against human Fibroblast cells assessed as inhibition of cell growth measured after 8 days by XTT cell viability assay; assay type: toxicity, cell-based
PC-3 [3] = assay: Induction of cell cycle arrest in human PC-3 cells assessed as accumulation of cells at S phase at 50 nM measured after 4 days by PI staining based flow cytometry analysis (reference value: 9.87%); assay type: functional; conditions: time 4 day
PC-3 [4] = assay: Induction of cell cycle arrest in human PC-3 cells assessed as accumulation of cells at G1/G0 phase at 50 nM measured after 8 days by PI staining based flow cytometry analysis (reference value: 64.6%); assay type: functional; conditions: time 8 day
PC-3 [5] = assay: Induction of cell cycle arrest in human PC-3 cells assessed as accumulation of cells at S phase at 1000 nM measured after 4 days by PI staining based flow cytometry analysis (reference value: 9.87%); assay type: functional; conditions: time 4 day
PC-3 [6] = assay: Induction of cell cycle arrest in human PC-3 cells assessed as accumulation of cells at G2/M phase at 1 nM measured after 8 days by PI staining based flow cytometry analysis (reference value: 12.4%); assay type: functional; conditions: time 8 day
PC-3 [7] = assay: Induction of cell cycle arrest in human PC-3 cells assessed as accumulation of cells at S phase at 1 nM measured after 6 days by PI staining based flow cytometry analysis (reference value: 14.4%); assay type: functional; conditions: time 6 day
PC-3 [8] = assay: Induction of cell cycle arrest in human PC-3 cells assessed as accumulation of cells at G2/M phase at 1000 nM measured after 4 days by PI staining based flow cytometry analysis (reference value: 11.9%); assay type: functional; conditions: time 4 day
PC-3 [9] = assay: Induction of cell cycle arrest in human PC-3 cells assessed as accumulation of cells at S phase at 50 nM measured after 6 days by PI staining based flow cytometry analysis (reference value: 14.4%); assay type: functional; conditions: time 6 day
PC-3 [10] = assay: Induction of cell cycle arrest in human PC-3 cells assessed as accumulation of cells at G2/M phase at 1000 nM measured after 6 days by PI staining based flow cytometry analysis (reference value: 15.8%); assay type: functional; conditions: time 6 day
PC-3 [11] = assay: Upregulation of caspase-3 expression in human PC-3 cells at 1 to 50 nM measured after 4 to 8 days by Western blot analysis; assay type: functional, cell-based; conditions: dose 1-50 nM, time 4-8 day
PC-3 [12] = assay: Induction of cell cycle arrest in human PC-3 cells assessed as accumulation of cells at S phase at 1 nM measured after 4 days by PI staining based flow cytometry analysis (reference value: 9.87%); assay type: functional; conditions: time 4 day
PC-3 [13] = assay: Induction of cell cycle arrest in human PC-3 cells assessed as accumulation of cells at G2/M phase at 50 nM measured after 4 days by PI staining based flow cytometry analysis (reference value: 11.9%); assay type: functional; conditions: time 4 day
PC-3 [14] = assay: Induction of cell cycle arrest in human PC-3 cells assessed as accumulation of cells at G1/G0 phase at 50 nM measured after 6 days by PI staining based flow cytometry analysis (reference value: 70.7%); assay type: functional; conditions: time 6 day
PC-3 [15] = assay: Induction of cell cycle arrest in human PC-3 cells assessed as accumulation of cells at G2/M phase at 1 nM measured after 6 days by PI staining based flow cytometry analysis (reference value: 15.8%); assay type: functional; conditions: time 6 day
PC-3 [16] = assay: Induction of cell cycle arrest in human PC-3 cells assessed as accumulation of cells at G2/M phase at 50 nM measured after 8 days by PI staining based flow cytometry analysis (reference value: 12.4%); assay type: functional; conditions: time 8 day
PC-3 [17] = assay: Induction of cell cycle arrest in human PC-3 cells assessed as accumulation of cells at G1/G0 phase at 1 nM measured after 8 days by PI staining based flow cytometry analysis (reference value: 64.6%); assay type: functional; conditions: time 8 day
PC-3 [18] = assay: Induction of cell cycle arrest in human PC-3 cells assessed as accumulation of cells at S phase at 1000 nM measured after 8 days by PI staining based flow cytometry analysis (reference value: 23.9%); assay type: functional; conditions: time 8 day
PC-3 [19] = assay: Upregulation of BAX expression in human PC-3 cells at 1 to 50 nM measured after 6 days by Western blot analysis; assay type: functional, cell-based; conditions: dose 1-50 nM, time 6.0 day
PC-3 [20] = assay: Induction of cell cycle arrest in human PC-3 cells assessed as accumulation of cells at G1/G0 phase at 1 nM measured after 6 days by PI staining based flow cytometry analysis (reference value: 70.7%); assay type: functional; conditions: time 6 day
PC-3 [21] = assay: Induction of cell cycle arrest in human PC-3 cells assessed as accumulation of cells at G1/G0 phase at 50 nM measured after 4 days by PI staining based flow cytometry analysis (reference value: 78.3%); assay type: functional; conditions: time 4 day
PC-3 [22] = assay: Induction of cell cycle arrest in human PC-3 cells assessed as accumulation of cells at G2/M phase at 1 nM measured after 4 days by PI staining based flow cytometry analysis (reference value: 11.9%); assay type: functional; conditions: time 4 day
PC-3 [23] = assay: Induction of cell cycle arrest in human PC-3 cells assessed as accumulation of cells at S phase at 50 nM measured after 8 days by PI staining based flow cytometry analysis (reference value: 23.9%); assay type: functional; conditions: time 8 day
PC-3 [24] = assay: Induction of cell cycle arrest in human PC-3 cells assessed as accumulation of cells at G2/M phase at 1000 nM measured after 8 days by PI staining based flow cytometry analysis (reference value: 12.4%); assay type: functional; conditions: time 8 day
PC-3 [25] = assay: Induction of cell cycle arrest in human PC-3 cells assessed as accumulation of cells at G2/M phase at 50 nM measured after 6 days by PI staining based flow cytometry analysis (reference value: 15.8%); assay type: functional; conditions: time 6 day
PC-3 [26] = assay: Upregulation of BAX expression in human PC-3 cells at 1 to 50 nM measured after 8 days by Western blot analysis; assay type: functional, cell-based; conditions: dose 1-50 nM, time 8.0 day
PC-3 [27] = assay: Induction of cell cycle arrest in human PC-3 cells assessed as accumulation of cells at S phase at 1 nM measured after 8 days by PI staining based flow cytometry analysis (reference value: 23.9%); assay type: functional; conditions: time 8 day
PC-3 [28] = assay: Induction of cell cycle arrest in human PC-3 cells assessed as accumulation of cells at G1/G0 phase at 1000 nM measured after 4 days by PI staining based flow cytometry analysis (reference value: 78.3%); assay type: functional; conditions: time 4 day
PC-3 [29] = assay: Induction of cell cycle arrest in human PC-3 cells assessed as accumulation of cells at G1/G0 phase at 1000 nM measured after 8 days by PI staining based flow cytometry analysis (reference value: 64.6%); assay type: functional; conditions: time 8 day
PC-3 [30] = assay: Upregulation of CYP1A1 expression in human PC-3 cells at 1 to 50 nM measured after 4 to 8 days by Western blot analysis; assay type: functional, cell-based; conditions: dose 1-50 nM, time 4-8 day
PC-3 [31] = assay: Induction of cell cycle arrest in human PC-3 cells assessed as accumulation of cells at G1/G0 phase at 1 nM measured after 4 days by PI staining based flow cytometry analysis (reference value: 78.3%); assay type: functional; conditions: time 4 day
PC-3 [32] = assay: Induction of cell cycle arrest in human PC-3 cells assessed as accumulation of cells at S phase at 1000 nM measured after 6 days by PI staining based flow cytometry analysis (reference value: 14.4%); assay type: functional; conditions: time 6 day
PC-3 [33] = assay: Induction of cell cycle arrest in human PC-3 cells assessed as accumulation of cells at G1/G0 phase at 1000 nM measured after 6 days by PI staining based flow cytometry analysis (reference value: 70.7%); assay type: functional; conditions: time 6 day

CC[C@H](C)[C@@H]([C@@H](CC(=O)N1CCC[C@H]1[C@H](OC)[C@@H](C)C(=O)N[C@@H](Cc1ccccc1)Cn1cc(CN)nn1)OC)N(C)C(=O)[C@@H](NC(=O)[C@H](C(C)C)N(C)C)C(C)C
pIC50 (PANC-1): 7.98 | pIC50 (NCI-H1299): 7.73 | pIC50 (MDA-MB-231): 7.02 | pIC50 (PC-3 [1]): 7.81 | IC50 at 8 days [2]: 0.0737 µM

CC[C@H](C)[C@@H]([C@@H](CC(=O)N1CCC[C@H]1[C@H](OC)[C@@H](C)C(=O)N[C@@H](Cc1ccccc1)c1nc(CN)cs1)OC)N(C)C(=O)[C@@H](NC(=O)[C@H](C(C)C)N(C)C)C(C)C
pIC50 (PANC-1): 9.70 | Activity (PC-3 [3]): 19.1% | Activity (PC-3 [4]): 43.3% | Activity (PC-3 [5]): 17.8% | Activity (PC-3 [6]): 9.28% | pIC50 (NCI-H1299): 8.51 | pIC50 (MDA-MB-231): 7.44 | Activity (PC-3 [7]): 29.5% | Activity (PC-3 [8]): 18.5% | Activity (PC-3 [9]): 26.4% | Activity (PC-3 [10]): 12.8% | Activity (PC-3 [11]): Active | Activity (PC-3 [12]): 14.5% | Activity (PC-3 [13]): 12% | Activity (PC-3 [14]): 59.6% | Activity (PC-3 [15]): 36.5% | Activity (PC-3 [16]): 24% | pIC50 (PC-3 [1]): 9.05 | Activity (PC-3 [17]): 65.9% | Activity (PC-3 [18]): 40.9% | Activity (PC-3 [19]): Active | Activity (PC-3 [20]): 35.5% | Activity (PC-3 [21]): 69.8% | Activity (PC-3 [22]): 9.06% | Activity (PC-3 [23]): 34.1% | Activity (PC-3 [24]): 22.9% | Activity (PC-3 [25]): 15.3% | Activity (PC-3 [26]): inactive | Activity (PC-3 [27]): 26.1% | Activity (PC-3 [28]): 64.5% | Activity (PC-3 [29]): 38.1% | Activity (PC-3 [30]): Active | Activity (PC-3 [31]): 77.1% | IC50 at 8 days [2]: 0.0385 µM | Activity (PC-3 [32]): 29.3% | Activity (PC-3 [33]): 59.2%

CC[C@H](C)[C@@H]([C@@H](CC(=O)N1CCC[C@H]1[C@H](OC)[C@@H](C)C(=O)N[C@@H](Cc1ccccc1)Cn1cc(CNC)nn1)OC)N(C)C(=O)[C@@H](NC(=O)[C@H](C(C)C)N(C)C)C(C)C
pIC50 (PANC-1): 8.89 | pIC50 (NCI-H1299): 8.33 | pIC50 (MDA-MB-231): 7.70 | pIC50 (PC-3 [1]): 8.05 | IC50 at 8 days [2]: 0.0384 µM

CC[C@H](C)[C@@H]([C@@H](CC(=O)N1CCC[C@H]1[C@H](OC)[C@@H](C)C(=O)N[C@@H](Cc1ccccc1)Cn1cc(C(=O)O)nn1)OC)N(C)C(=O)[C@@H](NC(=O)[C@H](C(C)C)N(C)C)C(C)C
pIC50 (PANC-1): 7.28 | pIC50 (NCI-H1299): 6.86 | pIC50 (MDA-MB-231): 7.03 | pIC50 (PC-3 [1]): 7.80 | IC50 at 8 days [2]: 0.0392 µM

CC[C@H](C)[C@@H]([C@@H](CC(=O)N1CCC[C@H]1[C@H](OC)[C@@H](C)C(=O)N[C@@H](Cc1ccccc1)Cn1cc(CO)nn1)OC)N(C)C(=O)[C@@H](NC(=O)[C@H](C(C)C)N(C)C)C(C)C
pIC50 (PANC-1): 8.33 | pIC50 (NCI-H1299): 8.11 | pIC50 (MDA-MB-231): 7.20 | pIC50 (PC-3 [1]): 7.96 | IC50 at 8 days [2]: 0.0515 µM

Reference: ChEMBL document CHEMBL5550178, “Synthesis and anticancer properties of novel dolastatin 10 analogs featuring five-membered heterocyclic rings with a linkable group at the C-terminus” (Bioorg Med Chem, 2024)
